The results in this text go back to patent US20170265465A1, “BIORATIONAL TREATMENT PRODUCTS AND METHODS OF USING SAME” (Board of Trustees of Michigan State University, priority 2014, published 2017).

SMILES strings stand for the structures.

The test system of assay [1] is irrigated putting green. Put plainly: Example 15: turfgrass color rating, TCM 500 NDVI Color Meter. The format is in vivo. To be noted: Sept. 16, TCM 500 NDVI Turf Color Meter. Here is the method:
(§1) The study was established in four replications of a randomized block design utilizing 2 ft.×21 ft. plots with 6 inch alleys. Treatments were initially applied on Sep. 13, 2016 with the same sprayer and under the same conditions described in Example 1. Turfgrass quality ratings and biomass ratings were performed as described in Example 1. The plots were trimmed on September 19, October 8, and Oct. 24, 2016 and clippings were also collected as described in Example 1.
(§2) Treatments were re-applied on Sep. 28, 2016 and Oct. 11, 2016. Turfgrass visual growth and quality ratings were taken periodically, along with turfgrass color ratings as taken with a Spectrum Technologies, Inc. TCM 500 NDVI Color Meter and a Spectrum Technologies, Inc. FieldScout CM 1000 Chlorophyll Meter. The study was irrigated as needed to prevent wilt. No background fertility was applied to the study area. The area was sprayed with 26GT fungicide on Sep. 27, 2016 to control dollar spot disease.

The test system of assay [2] is irrigated putting green. Put plainly: Example 15, 2016 bio-adjuvant/fertility study: visual turfgrass quality rating. The format is in vivo. To be noted: scale 1-9 (1 = worst, 9 = best, 7 = acceptable). Here is the method: as §1, §2

As for `NC(N)=O` [Urea (46-0-0), urea], the “Turfgrass Color (Greenness), MEAN, NDVI reading” value in the assay on irrigated putting green [1] (Trt. 4, 0.1 lb N/1000 sq. ft. /14 days) is recorded as 0.761; with irrigated putting green [1] (Trt. 5, 0.05 lb N/1000 sq. ft. /14 days) it was 0.755. Besides, the “Visual Turfgrass Quality, MEAN” value turned out to be 7.0 with irrigated putting green [2] (Trt. 4, 0.1 lb N/1000 sq. ft. /14 days, Oct. 1 (3 DAT)); 7.3 with irrigated putting green [2] (Trt. 4, 0.1 lb N/1000 sq. ft. /14 days, Oct. 6 (8 DAT)); 7.3 in the assay with irrigated putting green [2] (Trt. 4, 0.1 lb N/1000 sq. ft. /14 days, Sept. 19 (6 DAT)); 7.0 in the assay on irrigated putting green [2] (Trt. 5, 0.05 lb N/1000 sq. ft. /14 days, Oct. 1 (3 DAT)); 6.8 in the assay on irrigated putting green [2] (Trt. 5, 0.05 lb N/1000 sq. ft. /14 days, Oct. 6 (8 DAT)); 6.8 in the assay on irrigated putting green [2] (Trt. 5, 0.05 lb N/1000 sq. ft. /14 days, Sept. 19 (6 DAT)).
